From BindingDB's records for doi:10.1016/S0960-894X(01)80104-9 (1994)
pIC50: −log10 of the molar value.

Experiments:
[1] = In vitro thromboxane receptor antagonist against U-46619 induced aggregation of washed human platelets
[2] = target: T1, Thromboxane A2 receptor (Homo sapiens, UniProt P21731); test: In vitro thromboxane receptor antagonist against U-46619 induced aggregation of washed human platelets
T1 sequence (P21731 whole entry): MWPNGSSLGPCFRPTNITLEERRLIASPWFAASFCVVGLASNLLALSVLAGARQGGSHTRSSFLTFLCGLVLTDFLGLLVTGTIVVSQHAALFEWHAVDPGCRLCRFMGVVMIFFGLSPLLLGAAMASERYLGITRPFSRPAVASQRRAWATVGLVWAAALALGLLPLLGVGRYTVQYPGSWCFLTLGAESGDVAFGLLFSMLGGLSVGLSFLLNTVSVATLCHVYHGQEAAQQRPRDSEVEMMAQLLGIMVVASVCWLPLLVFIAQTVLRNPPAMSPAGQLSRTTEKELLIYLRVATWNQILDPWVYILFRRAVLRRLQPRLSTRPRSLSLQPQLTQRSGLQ

| Compound | pIC50 [1] | pIC50 [2] |
| --- | --- | --- |
| O=C(O)CC/C=C\CC[C@H]1[C@H](OCc2ccc(-c3ccccc3)cc2)CO[C@H]1c1cccnc1 [(Z)-7-[(2R,3R,4S)-4-(Biphenyl-4-ylmethoxy)-2-pyridin-3-yl-tetrahydro-furan-3-yl]-hept-4-enoic acid] | 6.09 | – |
| O=C(O)CC/C=C\CC[C@H]1[C@@H](OCc2ccc(-c3ccccc3)cc2)CO[C@@H]1c1cccnc1 [(Z)-7-[(2S,3R,4R)-4-(Biphenyl-4-ylmethoxy)-2-pyridin-3-yl-tetrahydro-furan-3-yl]-hept-4-enoic acid] | 7.57 | 7.55 |
| O=C(O)CC/C=C\CC[C@H]1[C@@H](OCc2ccc(-c3ccccc3)cc2)CO[C@H]1c1cccnc1 [(Z)-7-[(2R,3R,4R)-4-(Biphenyl-4-ylmethoxy)-2-pyridin-3-yl-tetrahydro-furan-3-yl]-hept-4-enoic acid] | 6.10 | – |
| O=C(O)CC/C=C\CC[C@@H]1[C@@H](c2cccnc2)OC[C@H]1OCc1ccc(-c2ccccc2)cc1 [(Z)-7-[(2S,3R,4S)-4-(Biphenyl-4-ylmethoxy)-2-pyridin-3-yl-tetrahydro-furan-3-yl]-hept-4-enoic acid] | 7.06 | – |
| O=C(O)CCCCO/N=C(/c1cccnc1)c1cccc(C(F)(F)F)c1 [5-[Pyridin-3-yl-(3-trifluoromethyl-phenyl)-methyleneaminooxy]-pentanoic acid] | 5.89 | – |
